For 17 compounds, EC50 results are on record in US11820773B2, “Tricyclic compounds” (ALIGOS THERAPEUTICS, INC., priority 2020, dated 2023).

The structures appear in SMILES notation. A value given as a limit tells only on which side of the number the result lay.

For this assay, the system named is HBV. As to the kind of experiment: HBV-DNA antiviral assay using HepG2.117 cells (intracellular HBV DNA by qPCR). The class given is cell-based, genotype D HBV. Particulars: Hepatitis B virus, 72 h, HBV DNA inhibition, 3 days incubation, 2% DMSO. As to the method:
The following assay procedure describes the HBV antiviral assay, using HepG2.117 cells, which carry a stably integrated genotype D HBV genome under the control of a Tet-off promoter, and intracellular HBV DNA quantification as endpoint. Cell viability is assessed in parallel by measuring the intracellular ATP content using CellTiter-Glo 2.0 (Promega).
On day 0, HepG2.117 cells (which are maintained in routine cell culture with doxycycline present in the medium at a final concentration of 1 μg/mL) were seeded in 96-well plates (white with clear bottom) at a density of 2.0×10^4 cells/well (0.1 mL/well) in medium without doxycycline to induce pgRNA transcription and subsequent formation of HBV particles. The cells were incubated at 37° C. and 5% CO2.
On day 1, medium was removed from each well, the test articles were diluted in culture medium without doxcycyline and 100 μL was added to cell culture wells (9 concentrations, 4-fold dilution). For each plate, 6 untreated (merely DMSO) wells were included. The final concentration of DMSO in the culture medium was 2%. Each plate was prepared in duplicate (one for HBV DNA extraction, one for CellTiter-Glo 2.0 measurement). The cells were incubated at 37° C. and 5% CO2 for 3 days.
On day 4, cell viability was assessed using CellTiter-Glo 2.0 and cell lysates were prepared for HBV DNA extraction and subsequent quantification by qPCR.
HBV DNA Quantification by qPCR
Medium was removed from each well and 100 μL of 0.33% NP-40 in H2O was added to each well. Plates were sealed, incubated at 4° C. for 5 mins, vortexed extensively and centrifuged briefly. Next, 35 μL of lysate was added to 65 μL QuickExtract DNA Extraction Solution (Epicentre) in a PCR plate for each well. PCR plate was incubated at 65° C. for 6 mins, 98° C. for 2 mins and finally cooled to 4° C. HBV DNA was then quantified by qPCR with HBV-specific primers and probes as specified in Table 1 using the Bio-Rad SSOAdvanced Universal Probes Supermix on a CFX96 machine (Bio-Rad). The PCR cycle program consisted of 95° C. for 3 mins, followed by 40 cycles at 95° C. for 10 sec and 60° C. for 30 sec.
A DNA standard was prepared by dilution of an IDT gBlock corresponding to the amplicon with concentrations ranging from 10^2 to 10^8 copies/input (i.e. per 4 μL) and used to generate a standard curve by plotting Cq values vs. HBV DNA standard concentration. The quantity of HBV DNA in each sample was determined by interpolating from the standard curve.
Cell viability was calculated as follows: % Cell viability=(luminescence value of test sample)/(average luminescence value of 2% DMSO control)×100%. HBV DNA inhibition was calculated as follows: 100−(HBV DNA copy number of test sample)/(average HBV DNA copy number of 2% DMSO control)×100%. No normalization to entecavir was required due to the excellent dynamic window of this assay. The CC50, EC50 and EC90 values were determined by dose-response curves fitted by GraphPad Prism using “log (agonist) vs. response—Variable slope”.
In the case of `CNC(=O)c1ccc(-n2c(=O)c3c(n4ncc(CC(C)C)c24)CN(C(=O)c2ccc(Br)c(C(F)(F)F)c2)[C@H](C)C3)cc1` (stereo in doubt) [Compound 50a, N-methyl-4-[rac-(11R)-12-[4-bromo-3-(trifluoromethyl)benzoyl]-5-isobutyl-11-methyl-8-oxo-2,3,7,12-tetrazatricyclo[7.4.0.0^2,6]trideca-1(9),3,5-trien-7-yl]benzamide], the 50% effective concentration (EC50) (in general, the concentration needed to bring the measured effect to its halfway point) was less than 0.05 µM.
As for `CNC(=O)c1ccc(-n2c(=O)c3c(n4ncc(CC(C)C)c24)CN(C(=O)c2ccc(Br)c(C(F)(F)F)c2)[C@@H](C)C3)cc1` (stereo in doubt) [Compound 50b, N-methyl-4-[rac-(11S)-12-[4-bromo-3-(trifluoromethyl)benzoyl]-5-isobutyl-11-methyl-8-oxo-2,3,7,12-tetrazatricyclo[7.4.0.0^2,6]trideca-1(9),3,5-trien-7-yl]benzamide], the figure is 0.05 to 0.5 µM.
To `C[C@@H]1Cc2c(n3ncc(CC4CCC4)c3n(-c3ccc(-c4nncn4C)cc3)c2=O)CN1C(=O)c1ccc(Cl)c(C(F)(F)F)c1` (stereo in doubt) [Compound 51a, rac-(11R)-12-[4-chloro-3-(trifluoromethyl)benzoyl]-5-(cyclobutylmethyl)-11-methyl-7-[4-(4-methyl-1,2,4-triazol-3-yl)phenyl]-2,3,7,12-tetrazatricyclo[7.4.0.0^2,6]trideca-1(9),3,5-trien-8-one] belongs less than 0.05 µM.
To `C[C@H]1Cc2c(n3ncc(CC4CCC4)c3n(-c3ccc(-c4nncn4C)cc3)c2=O)CN1C(=O)c1ccc(Cl)c(C(F)(F)F)c1` (stereo in doubt) [Compound 51b, rac-(11S)-12-[4-chloro-3-(trifluoromethyl)benzoyl]-5-(cyclobutylmethyl)-11-methyl-7-[4-(4-methyl-1,2,4-triazol-3-yl)phenyl]-2,3,7,12-tetrazatricyclo[7.4.0.0^2,6]trideca-1(9),3,5-trien-8-one] belongs 0.5 to 5 µM; to `Cc1nnc(-c2ccc(-n3c(=O)c4c(n5ncc(Cc6ccccc6)c35)CN(C(=O)c3ccc(Cl)c(C(F)(F)F)c3)[C@H](C)C4)cc2)[nH]1` (stereo in doubt) [Compound 52a, rac-(11R)-5-benzyl-12-[4-chloro-3-(trifluoromethyl)benzoyl]-11-methyl-7-[4-(5-methyl-4H-1,2,4-triazol-3-yl)phenyl]-2,3,7,12-tetrazatricyclo[7.4.0.0^2,6]trideca-1(9),3,5-trien-8-one], less than 0.05 µM; to `Cc1nnc(-c2ccc(-n3c(=O)c4c(n5ncc(Cc6ccccc6)c35)CN(C(=O)c3ccc(Cl)c(C(F)(F)F)c3)[C@@H](C)C4)cc2)[nH]1` (stereo in doubt) [Compound 52b, rac-(11S)-5-benzyl-12-[4-chloro-3-(trifluoromethyl)benzoyl]-11-methyl-7-[4-(5-methyl-4H-1,2,4-triazol-3-yl)phenyl]-2,3,7,12-tetrazatricyclo[7.4.0.0^2,6]trideca-1(9),3,5-trien-8-one], 0.05 to 0.5 µM.
Compound `Cc1nnc(-c2ccc(-n3c(=O)c4c(n5ncc(Cc6ccccc6)c35)CN(C(=O)c3ccc(Br)c(Cl)c3)[C@H](C)C4)cc2)[nH]1` (stereo in doubt) [Compound 53a, rac-(11R)-5-benzyl-12-(4-bromo-3-chloro-benzoyl)-11-methyl-7-[4-(5-methyl-4H-1,2,4-triazol-3-yl)phenyl]-2,3,7,12-tetrazatricyclo[7.4.0.0^2,6]trideca-1(9),3,5-trien-8-one] showed an EC50 of less than 0.05 µM.
As for `Cc1nnc(-c2ccc(-n3c(=O)c4c(n5ncc(Cc6ccccc6)c35)CN(C(=O)c3ccc(Br)c(Cl)c3)[C@@H](C)C4)cc2)[nH]1` (stereo in doubt) [Compound 53b, rac-(11S)-5-benzyl-12-(4-bromo-3-chloro-benzoyl)-11-methyl-7-[4-(5-methyl-4H-1,2,4-triazol-3-yl)phenyl]-2,37,12-tetrazatricyclo[7.4.0.0^2,6]trideca-1(9),3,5-trien-8-one], the figure is 0.05 to 0.5 µM.
As for `CNC(=O)c1ccc(-n2c(=O)c3c(n4ncc(CC(C)C)c24)CN(C(=O)c2ccc(Cl)c(C(F)(F)F)c2)[C@H](C)C3)cc1` (stereo in doubt) [Compound 54a, N-methyl-4-[rac-(11R)-12-[4-chloro-3-(trifluoromethyl)benzoyl]-5-isobutyl-11-methyl-8-oxo-2,3,7,12-tetrazatricyclo[7,4.0.0^2,6]trideca-1(9),3,5-trien-7-yl]benzamide], the figure is less than 0.05 µM.
As for `CNC(=O)c1ccc(-n2c(=O)c3c(n4ncc(CC(C)C)c24)CN(C(=O)c2ccc(Cl)c(C(F)(F)F)c2)[C@@H](C)C3)cc1` (stereo in doubt) [Compound 54b, N-methyl-4-[rac-(11S)-12-[4-chloro-3-(trifluoromethyl)benzoyl]-5-isobutyl-11-methyl-8-oxo-2,3,7,12-tetrazatricyclo[7.4.0.0^2,6]trideca-1(9),3,5-trien-7-yl]benzamide], the figure is 0.05 to 0.5 µM.
`CNC(=O)c1ccc(-n2c(=O)c3c(n4ncc(CC(C)C)c24)CN(C(=O)c2ccc(Br)c(Cl)c2)[C@H](C)C3)cc1` (stereo in doubt) [Compound 55a, N-methyl-4-[rac-(11R)-12-(4-bromo-3-chloro-benzoyl)-5-isobutyl-11-methyl-8-oxo-2,3,7,12-tetrazatricyclo[7.4.0.0^2,6]trideca-1(9),3,5-trien-7-yl]benzamide] showed a 50% effective concentration (EC50) of less than 0.05 µM.
To `CNC(=O)c1ccc(-n2c(=O)c3c(n4ncc(CC(C)C)c24)CN(C(=O)c2ccc(Br)c(Cl)c2)[C@@H](C)C3)cc1` (stereo in doubt) [Compound 55b, N-methyl-4-[rac-(11S)-12-(4-bromo-3-chloro-benzoyl)-5-isobutyl-11-methyl-8-oxo-2,3,7,12-tetrazatricyclo[7.4.0.0^2,6]trideca-1(9),3,5-trien-7-yl]benzamide] belongs 0.05 to 0.5 µM; to `CNc1n[nH]c2cc(-n3c(=O)c4c(n5ncc(CC(C)C)c35)CN(C(=O)c3ccc(Cl)c(C(F)(F)F)c3)[C@H](C)C4)ccc12` (stereo in doubt) [Compound 56a, rac-(11R)-12-[4-chloro-3-(trifluoromethyl)benzoyl]-5-isobutyl-11-methyl-7-[3-(methylamino)-1H-indazol-6-yl]-2,3,7,12-tetrazatricyclo[7.4.0.0^2,6]trideca-1(9),3,5-trien-8-one], less than 0.05 µM.
To `CNc1n[nH]c2cc(-n3c(=O)c4c(n5ncc(CC(C)C)c35)CN(C(=O)c3ccc(Cl)c(C(F)(F)F)c3)[C@@H](C)C4)ccc12` (stereo in doubt) [Compound 56b, rac-(11S)-12-[4-chloro-3-(trifluoromethyl)benzoyl]-5-isobutyl-11-methyl-7-[3-(methylamino)-1H-indazol-6-yl]-2,3,7,12-tetrazatricyclo[7.4.0.0^2,6]trideca-1(9),3,5-trien-8-one] belongs 0.05 to 0.5 µM; to `CNc1n[nH]c2cc(-n3c(=O)c4c(n5ncc(CC(C)C)c35)CN(C(=O)c3ccc(Br)c(Cl)c3)[C@H](C)C4)ccc12` (stereo in doubt) [Compound 57a, rac-(11R)-12-(4-bromo-3-chloro-benzoyl)-5-isobutyl-11-methyl-7-[3-(methylamino)-1H-indazol-6-yl]-2,3,7,12-tetrazatricyclo[7.4.0.0^2,6]trideca-1(9),3,5-trien-8-one], less than 0.05 µM; to `CNc1n[nH]c2cc(-n3c(=O)c4c(n5ncc(CC(C)C)c35)CN(C(=O)c3ccc(Br)c(Cl)c3)[C@@H](C)C4)ccc12` (stereo in doubt) [Compound 57b, rac-(11S)-12-(4-bromo-3-chloro-benzoyl)-5-isobutyl-11-methyl-7-[3-(methylamino)-1H-indazol-6-yl]-2,3,7,12-tetrazatricyclo[7.4.0.0^2,6]trideca-1(9),3,5-trien-8-one], 0.05 to 0.5 µM.
As for `C[C@@H]1Cc2c(n3ncc(Cc4ccccc4)c3n(-c3ccc(-c4n[nH]c(=O)n4C)cc3)c2=O)CN1C(=O)c1ccc(Br)c(C(F)(F)F)c1` (stereo in doubt) [Compound 58a, rac-(11R)-5-benzyl-12-[4-bromo-3-(trifluoromethyl)benzoyl]-11-methyl-7-[4-(4-methyl-5-oxo-1H-1,2,4-triazol-3-yl)phenyl]-2,3,7,12-tetrazatricyclo[7.4.0.0^2,6]trideca-1(9),3,5-trien-8-one], the figure is less than 0.05 µM.
